According to ChEMBL document CHEMBL1136116 (Bioorg Med Chem Lett, 2003):
pIC50: −log10 of the molar value.

How the values were obtained:
[1] = target: Cyclin-dependent kinase 4/cyclin D (Homo sapiens, UniProt P11802); test: Inhibition of CDK4-Cyclin D; assay type: protein-complex assay
[2] = target: Cyclin-dependent kinase 1/cyclin B (Homo sapiens, UniProt P06493); test: Inhibition of Cyclin-dependent kinase 1-cyclin B; assay type: protein-complex assay
[3] = target: Cyclin-dependent kinase 2/cyclin E (Homo sapiens, UniProt P24941); test: Inhibitory activity against Cyclin-dependent kinase 2-cyclin E; assay type: protein-complex assay
A2780 = test: Cytotoxic effect on ovarian cancer cell line (A2780); assay type: functional, cell-based; conditions: Homo sapiens

| SMILES | pIC50 [1] | pIC50 [2] | pIC50 [3] | pIC50 (A2780) |
| --- | --- | --- | --- | --- |
| CCCCOc1c(C(=O)c2c(F)cc(Br)cc2F)cnc2[nH]ncc12 | 6.43 | 7.77 | 7.70 | – |
| CCCCOc1c(C(=O)NCC)cnc2[nH]ncc12 | – | – | 5.09 | – |
| CCCCOc1c(C(=O)c2c(F)cc(OC)cc2F)cnc2[nH]ncc12 | 6.64 | 8.15 | 7.66 | – |
| CCCCOc1c(C(=O)c2c(F)cc(C)cc2F)c[nH]c2nncc1-2 | 6.64 | 8.22 | 8.05 | 6.12 |
| CCCCOc1c(C(=O)Cc2ccccc2)cnc2[nH]ncc12 | – | – | < 6.00 | – |
| CCCCOc1c(C(=O)c2cccnc2)cnc2[nH]ncc12 | – | – | 5.62 | – |
| CCCCOc1c(C(=O)c2ccco2)cnc2[nH]ncc12 | – | 6.55 | 6.74 | – |
| CCCCOc1c(S(=O)(=O)c2ccccc2)cnc2[nH]ncc12 | – | – | 6.28 | – |
| CCCCOc1c([S+]([O-])c2ccccc2)cnc2[nH]ncc12 (stereo not given) | – | – | 6.47 | – |
| CCCCOc1c(C(=O)C2CC2)cnc2[nH]ncc12 | – | – | 5.57 | – |
| CCCCOc1c(C(=O)c2ccc(C)cc2)cnc2[nH]ncc12 | – | – | 6.68 | – |
| CCCCOc1c(C(=O)Nc2ccccc2)cnc2[nH]ncc12 | – | – | 4.72 | – |
| CCCCOc1c(C(=O)c2c(F)cccc2F)cnc2[nH]ncc12 | 4.68 | 7.49 | 7.19 | – |
| CCCCOc1c(C(=O)c2cccc(C)c2)cnc2[nH]ncc12 | – | – | 6.18 | – |
| CCCCOc1c(C(=O)OC)cnc2[nH]ncc12 | – | – | < 5.00 | – |
| CCCCOc1c(C(=O)c2nccs2)cnc2[nH]ncc12 | – | 6.35 | 6.68 | – |
| CCCCOc1c(C(=O)c2ccccc2F)cnc2[nH]ncc12 | 4.62 | 6.44 | 7.44 | – |
| CCCCOc1c(C(=O)c2c(C)cc(C)cc2C)cnc2[nH]ncc12 | – | – | < 6.00 | – |
| CCCCOc1c(C(C)=O)cnc2[nH]ncc12 | – | – | < 6.00 | – |
| CCCCOc1c(C(=O)c2c(F)cc(Cl)cc2F)cnc2[nH]ncc12 | 6.51 | 7.89 | 7.57 | – |
| CCCCOc1c(C(=O)c2ccccc2C)cnc2[nH]ncc12 | – | 6.39 | 6.14 | – |
| CCCCOc1c(C(=O)c2cccs2)cnc2[nH]ncc12 | – | 6.64 | 6.70 | – |
| CCCCOc1c(C(=O)c2ccccc2)cnc2[nH]ncc12 [SQ-67563] | < 4.60 | – | – | – |
